Assay results from patent publication US20230121313A1 (priority 2019, published 2023).

Tested on: patients with treatment-resistant depression (TRD)
Experiment: MADRS total score, phase 2 doubly-randomized dose-response study in TRD (NCT01998958)
Assay type: in vivo, human
Details: for MADRS total score, Mean difference placebo: Period 1 and Period 2 Combined; for MADRS total score: LS mean difference vs placebo, range over esketamine dose groups / Proportion of responders (≥50% improvement in MADRS total score) / Remission (MADRS total score ≤10) / MADRS total score: treatment difference relative to placebo: phase 2; for MADRS total score: LS mean difference vs placebo, range over esketamine dose groups: 28, 56, 84 mg; for Proportion of responders (≥50% improvement in MADRS total score): Period 2 endpoint; for Remission (MADRS total score ≤10): after 2 weeks; for MADRS total score: treatment difference relative to placebo: day 15
Source text: In Panel A, reported here, 14 study sites (13 in US, 1 in Belgium) enrolled participants into the study. The study consisted of four phases: 1) screening, 2) double-blind treatment (days 1 to 15), comprised of two 1-week periods (Period 1, Period 2), 3) optional open-label treatment (days 15 to 74) with tapering of intranasal dosing frequency, and 4) post-treatment follow-up (8 weeks). Based on prior studies of ketamine where efficacy was reported after 1-2 doses, the duration of each period in the double-blind phase was 1 week, during which time it was expected that efficacy could be achieved. This design allowed evaluation of the dose(s) needed to proceed to evaluation in phase 3. The purpose of the open-label flexible-dose phase was to evaluate the impact of less frequent dosing on sustaining efficacy.
At the beginning of double-blind Period 1, eligible participants were randomized (3:1:1:1) to intranasal placebo or esketamine 28, 56, or 84 mg, twice weekly (days 1 and 4) based on the first of two computer-generated randomization schedules (Period 1 and Period 2). Randomization was balanced by using randomly permuted blocks and stratified by study center. At the end of Period 1, those randomized to placebo who had moderate-to-severe symptoms (assessed by Quick Inventory of Depressive Symptomatology-Self Report (Trivedi 2016 and Rush, “The 16-item Quick Inventory of Depressive Symptomatology (QIDS) Clinician Rating (QIDS-C) and Self-Report (QIDS-SR): A psychometric evaluation in patients with chronic major depression”, Biol. Psychiatry, 2003, 54(5):573-583) [QIDS-SR16] total score: moderate, 11-16; severe, >16) were re-randomized (1:1:1:1) to intranasal esketamine 28, 56, or 84 mg or placebo, twice weekly (days 8 and 11), while those having mild or no symptoms continued on placebo. To maintain the blind, all participants completed an identical process prior to entry into Period 2, whether or not they were re-randomized. Regardless of response in the double-blind phase, all participants were eligible to enter the optional open-label phase. Esketamine (56 mg) was administered on the first day of the open-label phase (study day 15); subsequent doses could be adjusted (range: 28 to 84 mg) based on investigator's clinical judgment, with administration twice weekly for first 2 weeks, weekly for next 3 weeks, then every 2 weeks thereafter.
Efficacy was assessed with the Montgomery-Asberg Depression Rating Scale (MADRS; Montgomery, “A new depression scale designed to be sensitive to change”, Br. J. Psychiatry, 1979, 134:382-389; Williams, “Development and reliability of a structured interview guide for the Montgomery Asberg Depression Rating Scale (SIGMA)”, Br. J. Psychiatry, 2008, 192(1):52-58) on days 1 (pre-dose and 2 hour post-dose), 2, 8 (pre-dose), 9, and 15, using the structured interview guide (SIGMA). See, Williams 2008.
Efficacy data were analyzed in intent-to-treat (ITT) analysis sets for each period and phase. The ITT analysis sets included all participants who received at least 1 dose of study medication during that period or phase and had baseline and at least one post-baseline MADRS total score within that period or phase.
The primary efficacy endpoint—change from baseline (pre-dose, day 1 in each period) to endpoint (day 8 in each period) in MADRS total score—was analyzed using the analysis of covariance (ANCOVA) model. For Period 1, the model included treatment and country as factors, and baseline MADRS total score as covariate. For Period 2, the model included treatment and country as factors, Period 2 baseline QIDS-SR16 score (moderate or severe), and Period 2 baseline MADRS total score as a continuous covariate.
Given the consistency between Periods 1 and 2 results (Chi 2016), esketamine dose groups were compared to placebo using a combined test on the weighted test statistics for each period in the double-blind treatment phase. […]

[1] = OL endpoint-day 74, Esketamine/Esketamine/OL Esketamine
[2] = OL endpoint-day 74, Placebo/Esketamine/OL Esketamine
[3] = OL endpoint-day 74, Placebo/Placebo/OL Esketamine
[4] = Period 1, 2 hours, esketamine 28 mg
[5] = Period 1, 2 hours, esketamine 56 mg
[6] = Period 1, 2 hours, esketamine 84 mg
[7] = Period 1, 24 hours, esketamine 28 mg
[8] = Period 1, 24 hours, esketamine 56 mg
[9] = Period 1, 24 hours, esketamine 84 mg
[10] = Period 1, study period endpoint (day 8), esketamine 28 mg
[11] = Period 1, study period endpoint (day 8), esketamine 56 mg
[12] = Period 1, study period endpoint (day 8), esketamine 84 mg
[13] = Period 2 (placebo nonresponsive participants re-randomized), 2 hours, esketamine 28 mg
[14] = Period 2 (placebo nonresponsive participants re-randomized), 2 hours, esketamine 56 mg
[15] = Period 2 (placebo nonresponsive participants re-randomized), 2 hours, esketamine 84 mg
[16] = Period 2 (placebo nonresponsive participants re-randomized), 24 hours, esketamine 28 mg
[17] = Period 2 (placebo nonresponsive participants re-randomized), 24 hours, esketamine 56 mg
[18] = Period 2 (placebo nonresponsive participants re-randomized), 24 hours, esketamine 84 mg
[19] = Period 2 (placebo nonresponsive participants re-randomized), study period endpoint (day 15), esketamine 28 mg
[20] = Period 2 (placebo nonresponsive participants re-randomized), study period endpoint (day 15), esketamine 56 mg
[21] = Period 2 (placebo nonresponsive participants re-randomized), study period endpoint (day 15), esketamine 84 mg
[22] = Week 8 (Follow-up), Esketamine/Esketamine/OL Esketamine
[23] = Week 8 (Follow-up), Placebo/Esketamine/OL Esketamine
[24] = Week 8 (Follow-up), Placebo/Placebo/OL Esketamine

CN[C@]1(c2ccccc2Cl)CCCCC1=O [esketamine, (S)-2-(2-chlorophenyl)-2-(methylamino)cyclohexanone] was tested, and the “Remission Rate, No, %” value [1] was 72.2%, the “Remission Rate, Yes, %” value [1] was 27.8% and the “Response Rate, ≥50% improvement, %” value [1] was 61.1%. For the same compound, the “Remission Rate, No, %” value [2] was 60.0%, the “Remission Rate, Yes, %” value [2] was 40.0% and the “Response Rate, ≥50% improvement, %” value [2] was 50.0%. The “Remission Rate, No, %” value [3] was 66.7%, the “Remission Rate, Yes, %” value [3] was 33.3% and the “Response Rate, ≥50% improvement, %” value [3] was 100%. For the same compound, the “Remission Rate, No, %” value (OL endpoint-day 74, Total) was 67.6%, the “Remission Rate, Yes, %” value (OL endpoint-day 74, Total) was 32.4% and the “Response Rate, ≥50% improvement, %” value (OL endpoint-day 74, Total) was 64.7%. The “MADRS total score, LS mean change” value [4] was −16.4, the “MADRS total score, LS mean difference placebo” value [4] was −6.7 and the “Remitters, %” value [4] was “(27.3) %”. The “Responders, %” value [4] was “(54.5) %”, the “MADRS total score, LS mean change” value [5] was −14.3 and the “MADRS total score, LS mean difference placebo” value [5] was −4.6. The “Remitters, %” value [5] was “(18.2) %”, the “Responders, %” value [5] was “(36.4) %” and the “MADRS total score, LS mean change” value [6] was −17.6. For the same compound, the “MADRS total score, LS mean difference placebo” value [6] was −7.9, the “Remitters, %” value [6] was “(25.0) %” and the “Responders, %” value [6] was “(58.3) %”. For the same compound, the “MADRS total score, LS mean change” value [7] was −14.8, the “MADRS total score, LS mean difference placebo” value [7] was −9.1 and the “Remitters, %” value [7] was “(36.4) %”. For the same compound, the “Responders, %” value [7] was “(36.4) %”, the “MADRS total score, LS mean change” value [8] was −15.7 and the “MADRS total score, LS mean difference placebo” value [8] was −10.0. The “Remitters, %” value [8] was “(18.2) %”, the “Responders, %” value [8] was “(27.3) %” and the “MADRS total score, LS mean change” value [9] was −16.4. The “MADRS total score, LS mean difference placebo” value [9] was −10.7, the “Remitters, %” value [9] was “(25.0) %” and the “Responders, %” value [9] was “(41.7) %”. For the same compound, the “MADRS total score, LS mean change” value [10] was −9.8, the “MADRS total score, LS mean difference placebo” value [10] was −5.0 and the “Remitters, %” value [10] was “(9.1) %”. For the same compound, the “Responders, %” value [10] was “(9.1) %”, the “MADRS total score, LS mean change” value [11] was −12.4 and the “MADRS total score, LS mean difference placebo” value [11] was −7.6. The “Remitters, %” value [11] was “(9.1) %”, the “Responders, %” value [11] was “(18.2) %” and the “MADRS total score, LS mean change” value [12] was −15.3. The “MADRS total score, LS mean difference placebo” value [12] was −10.5, the “Remitters, %” value [12] was “(25.0) %” and the “Responders, %” value [12] was “(41.7) %”. For the same compound, the “MADRS total score, Mean difference placebo” value (esketamine 28 mg) was −4.2, the “MADRS total score, Mean difference placebo” value (esketamine 56 mg) was −6.3 and the “MADRS total score, Mean difference placebo” value (esketamine 84 mg) was −9.0. For the same compound, the “MADRS total score, LS mean change” value [13] was −10.3, the “MADRS total score, LS mean difference placebo” value [13] was −3.5 and the “Remitters, %” value [13] was “(12.5) %”. The “Responders, %” value [13] was “(12.5) %”, the “MADRS total score, LS mean change” value [14] was −11.7 and the “MADRS total score, LS mean difference placebo” value [14] was −4.9. For the same compound, the “Responders, %” value [14] was “(22.2) %”, the “MADRS total score, LS mean change” value [15] was −11.6 and the “MADRS total score, LS mean difference placebo” value [15] was −4.9. The “Remitters, %” value [15] was “(40.0) %”, the “Responders, %” value [15] was “(40.0) %” and the “MADRS total score, LS mean change” value [16] was −8.9. For the same compound, the “MADRS total score, LS mean difference placebo” value [16] was −4.8, the “MADRS total score, LS mean change” value [17] was −10.2 and the “MADRS total score, LS mean difference placebo” value [17] was −6.1. For the same compound, the “Responders, %” value [17] was “(11.1) %”, the “MADRS total score, LS mean change” value [18] was −11.6 and the “MADRS total score, LS mean difference placebo” value [18] was −7.5. The “Remitters, %” value [18] was “(20.0) %”, the “Responders, %” value [18] was “(40.0) %” and the “MADRS total score, LS mean change” value [19] was −7.6. The “MADRS total score, LS mean difference placebo” value [19] was −3.1, the “Remitters, %” value [19] was “(12.5) %” and the “Responders, %” value [19] was “(12.5) %”. The “MADRS total score, LS mean change” value [20] was −8.9, the “MADRS total score, LS mean difference placebo” value [20] was −4.4 and the “MADRS total score, LS mean change” value [21] was −11.4. The “MADRS total score, LS mean difference placebo” value [21] was −6.9, the “Remitters, %” value [21] was “(20.0) %” and the “Responders, %” value [21] was “(20.0) %”. For the same compound, the “Remission Rate, No, %” value [22] was 54.5%, the “Remission Rate, Yes, %” value [22] was 45.5% and the “Response Rate, ≥50% improvement, %” value [22] was 68.2%. For the same compound, the “Remission Rate, No, %” value [23] was 75.0%, the “Remission Rate, Yes, %” value [23] was 25.0% and the “Response Rate, ≥50% improvement, %” value [23] was 25.0%. For the same compound, the “Remission Rate, No, %” value [24] was 42.9%, the “Remission Rate, Yes, %” value [24] was 57.1% and the “Response Rate, ≥50% improvement, %” value [24] was 71.4%. The “Remission Rate, No, %” value (Week 8 (Follow-up), Total) was 58.5%, the “Remission Rate, Yes, %” value (Week 8 (Follow-up), Total) was 41.5% and the “Response Rate, ≥50% improvement, %” value (Week 8 (Follow-up), Total) was 56.1%. The “MADRS total score: LS mean difference vs placebo, range over esketamine dose groups” value (Period 1 (baseline to day 8)) was −5.0 to −10.5, the “MADRS total score: LS mean difference vs placebo, range over esketamine dose groups” value (Period 2 (day 8 to day 15)) was −3.1 to −6.9 and the “Proportion of responders (≥50% improvement in MADRS total score)” value (28 mg) was 37.5%. For the same compound, the “Proportion of responders (≥50% improvement in MADRS total score)” value (56 mg) was 36.4%, the “Proportion of responders (≥50% improvement in MADRS total score)” value (84 mg) was 50.0% and the “Remission (MADRS total score ≤10)” value (28 mg) was 12.5%. For the same compound, the “Remission (MADRS total score ≤10)” value (56 mg) was 27.3%, the “Remission (MADRS total score ≤10)” value (84 mg) was 40.0% and the “MADRS total score: treatment difference relative to placebo” value (completers with same treatment 2 weeks, 84 mg) was −12.5. The “MADRS total score: treatment difference relative to placebo” value (completers, 28 mg) was −6.0 and the “MADRS total score: treatment difference relative to placebo” value (completers, 56 mg) was −8.3.
